According to publication PMC7870846, “Incorporation of sensing modalities into de novo designed fluorescence-activating proteins” (Nature Communications, 2021):
Marks after values point to notes of the source that are not given here.

Assays:
mFAP10 = target: T1, mFAP10; assay: Fluorescence titration of DFHBI or DFHBI-1T into 20.0 nM purified protein in high-salt Tev cleavage buffer (25.0 mM Tris, 100 mM NaCl, pH 8.00), excitation 468 nm and emission 530 nm, means of eight technical replicates fit to a single-binding site isotherm.; conditions: n = 8
T1 construct: de novo designed beta-barrel; large-scale purification and SEC
Source text: (§1) Fig. 1 Characterization of brighter and chromophore-specific mFAPs. a Computational model of de novo designed β-barrel variant mFAP2b showing protein backbone (cartoon) and bound DFHBI chromophore (sticks). b, c Chemical structures of DFHBI and DFHBI-1T, respectively. d, e In vitro titration of d DFHBI or e DFHBI-1T with mFAP2 (gray), mFAP2b (lime), mFAP2a (violet), and mFAP10 (pink) proteins. Error bars represent s.d. of the mean of eight technical replicates. […] The images (left) are the pseudocolored normalized fluorescence intensity per pixel. Scale bars represent 10 microns. Imaging was independently repeated twice with similar results. The computational models (right) show the residues unique to mFAP2b (V13, M15) (lime sticks) or mFAP2a (A13, F15) (violet sticks). Intermolecular hydrogen bonds to the chromophore are shown as black dotted lines. […] Source data is available for Fig. 1f–i.
(§2) Fluorescence endpoints were measured on a Synergy Neo2 hybrid multi-mode reader (BioTek) in flat bottom, black polystyrene, non-binding surface 96-well microplates (Corning 3650). In measuring chromophore-binding affinities (Fig. 1d, e), mFAP2, mFAP2a, and mFAP2b, and mFAP10 were produced by large-scale protein purification and SEC purification. Proteins were aliquoted in eight technical replicates in 200 μL final volumes to 20.0 nM final concentration in ten serial dilutions ( 10 dilution factor) of DFHBI starting from 31.6 μM DFHBI or 31.6 μM DFHBI-1T final concentrations, including an eleventh condition without chromophore. Fluorescence was excited at λex = 468 nm and fluorescence emission measured at λem = 530 nm. Background fluorescence endpoints of wells with identical chromophore concentrations but purified protein replaced with an identical volume of high-salt Tev cleavage buffer were measured, and fluorescence endpoints subtracted from those measured with protein. Background-subtracted data were averaged and the means normalized from 0 to 1 and fit to a single-binding site isotherm function using non-linear least squares fitting to obtain a fitted Kd value (Table 1), and the fit scaled to the maximum mean value (Fig. 1d, e).

mFAP2a = target: T2, mFAP2a; assay: as above; conditions: n = 8
T2 construct: de novo designed beta-barrel; large-scale purification and SEC
Source text: as §1, §2

mFAP2b = target: T3, mFAP2b; assay: as above; conditions: n = 8
T3 construct: de novo designed beta-barrel; large-scale purification and SEC
Source text: as §1, §2

mFAP_pH [1] = target: T4, mFAP_pH; assay: Fluorescence titration of DFHBI into 500 nM protein in Na2HPO4-citrate buffer with 143 mM NaCl at pH 3.61 (excitation 379 nm, emission 498 nm), fit to a single-binding site isotherm.; conditions: read-out: affinities (Kd values), phenolic form of DFHBI
T4 construct: de novo designed beta-barrel; large-scale protein purification
Description: (§3) In measuring the protonated (phenolic) and deprotonated (phenolate) DFHBI affinities with mFAP_pH (Supplementary Fig. 5c), fluorescence endpoints were measured on a Synergy Neo2 hybrid multi-mode reader (BioTek) in flat bottom, black polystyrene, non-binding surface 96-well microplates (Corning 3650). mFAP_pH was produced by large-scale protein purification[49] and aliquoted to 200 μL final volumes at 500 nM final concentration in seven serial dilutions ( 10 dilution factor) of DFHBI starting from 10.0 μM DFHBI final concentration, including an eighth condition without chromophore, in Na2HPO4-citrate buffer supplemented with 143 mM NaCl final concentration at either pH 3.61 or pH 7.34. For pH 3.61 fluorescence was excited at λex = 379 nm and fluorescence emission measured at λem = 498 nm, and for pH 7.34 fluorescence was excited at λex = 483 nm and fluorescence emission measured at λem = 503 nm. At each pH, background fluorescence endpoints of wells with identical chromophore concentrations but purified protein replaced with an identical volume of buffer were measured, and fluorescence endpoints subtracted from those measured with protein. Background-subtracted data were normalized from 0 to 1 and fit to a single-binding site isotherm function using non-linear least squares fitting to obtain the reported Kd values, which were less than the protein concentrations tested.

mFAP_pH [2] = target: T4, mFAP_pH; assay: Fluorescence titration of DFHBI into 500 nM protein in Na2HPO4-citrate buffer with 143 mM NaCl at pH 7.34 (excitation 483 nm, emission 503 nm), fit to a single-binding site isotherm.; conditions: read-out: affinities (Kd values), phenolate form of DFHBI
Description: as §3

SERCA pumps = assay: Pharmacological inhibition of SERCA Ca2+ pumps in cardiomyocytes; format: cell-based, human; conditions: 20.0 µM final; 3.00 µM DFHBI
Description: Pharmacological inhibition of SERCA Ca^2+ pumps: Cardiomyocytes in 2.0 mL of Tyrode’s solution labeled with 3.00 µM DFHBI were imaged at 2 Hz for 30 min with an sCMOS camera (Photometrics Prime95B) and 20x magnification lens (Leica HCX PL FLUOTAR L 20x/0.40 NA CORR). A stock solution of 20.0 mM cyclopiazonic acid (CPA) (Tocris, 1235) in 100% anhydrous DMSO was prepared. Two milliliters of Tyrode’s solution containing 3.00 µM DFHBI and 40.0 µM CPA was administered at ~10 min from initial image acquisition to inhibit SERCA pumps and disrupt Ca^2+ recovery into the SR after contraction. Fluorescence fold-change over the whole field of view in each frame was calculated by Eq. (11), where F is the fluorescence per frame, and F0 is the fluorescence at the first frame (Supplementary Fig. 19c).

[3] = pH-dependent fluorescence assays (pH titration); format: biochemical; conditions: from pH 8.38 to pH 4.79
Description: In measuring pH-dependent fluorescence (Fig. 3d–i), Na2HPO4-citrate buffer supplemented with 150 mM NaCl at unique pH values were produced via mixing various volumes of 100 mM citric acid (Sigma Aldrich), 200 mM Na2HPO4 (Sigma Aldrich), and 2.00 M NaCl, and final pHs quantified via an Accumet AB15 Basic pH meter (Fisher Scientific). pHRed and pHluorin2 were produced via large-scale protein purification, 6xHis-tag removal and size-exclusion chromatography (SEC) purification, and mFAP_pH and mFAP2b were produced via large-scale protein purification and SEC purification. pH-dependent fluorescence was measured at […] final protein concentration for mFAP2b, mFAP_pH and pHRed, and 170 nM final concentration for pHluorin2, at each pH in technical triplicate in 200 μL final volumes per well. […] In measuring fluorescence excitation spectra at each pH (Fig. 3d), excitation wavelengths were set to the range λex = 300–530 nm and fluorescence emission measured at λem = 562 nm. In measuring pH-dependent fluorescence excitation spectra at pH 3.76 and pH 7.34 (Fig. 3f, g), excitation spectra were measured using excitation wavelengths in the range λex = 300–540 nm and emission wavelength λem = 592 nm. […]

[4] = cited from earlier work

| Compound | Kd (mFAP10) [µM] | Kd (mFAP2a) [µM] | Kd (mFAP2b) [µM] | Reported quantum yield [4] | also measured |
| --- | --- | --- | --- | --- | --- |
| CC1=N/C(=C\c2cc(F)c(O)c(F)c2)C(=O)N1C [DFHBI] | 0.017 ± 0.0079 | 0.15 ± 0.011 | 1.8 ± 0.25 |  | Kd (mFAP_pH [1]): ~0.19 µM; Kd (mFAP_pH [2]): ~0.16 µM |
| CC(=O)C1=C(O)[C@@H]2[C@H]3c4c[nH]c5cccc(c45)C[C@H]3C(C)(C)N2C1=O [cyclopiazonic acid] |  |  |  |  | effect on SR fluorescence of EF1n_mFAP2b sensor (SERCA pumps): sustained increase in fluorescence in the SR |
| pHRed: previously reported pH sensor protein [reference compound] |  |  |  |  | fold-change in ratiometric fluorescence (Fratio) [3]: ~ 34 fold |
| CC1=N/C(=C\c2cc(F)c(O)c(F)c2)C(=O)N1CC(F)(F)F [DFHBI-1T, (Z)-4-(3,5-difluoro-4-hydroxybenzylidene)-2-methyl-1-(2,2,2-trifluoroethyl)-1H-imidazol-5(4 H)-one] |  |  |  | 0.00098^e |  |
| CC1=N/C(=C\c2cc(F)c(O)c(F)c2)C(=O)N1CC(F)(F)F [DFHBI-1T, (Z)-4-(3,5-difluoro-4-hydroxybenzylidene)-2-methyl-1-(2,2,2-trifluoroethyl)-1H-imidazol-5(4H)-one] | 0.045 ± 0.0065 | 5.8 ± 0.86 | 11 ± 3.1 |  |  |
| CC1=N/C(=C\c2cc(F)c(O)c(F)c2)C(=O)N1C [DFHBI, 3,5-difluoro-4-hydroxybenzylidene imidazolinone] |  |  |  | 0.0007^e | Absolute quantum yield [4]: 0.001^f; pKa ([4]; free, unbound in solution): ~ 5.4 |
